Activity calls are given as the source filed them. The calls are words filed in the database; no cut-off is given here.
Columns and labels:
THP-1 [1] = test: Proapoptotic activity in human THP1 cells assessed as necrotic cells at 25 uM after 1 hr by annexin V/propidium iodide staining-based capillary cytometric method relative to control; assay type: functional
NTERA-2-cl-D1 [2] = test: Induction of apoptosis in human NT2/D1 cells assessed as late apoptotic cells at 25 uM after 4 hrs in presence of pan caspase inhibitor Z-VAD-fmk by annexin V/propidium iodide staining-based capillary cytometric method (reference value: 0.70%); assay type: functional
NTERA-2-cl-D1 [3] = test: Proapoptotic activity in human NT2/D1 cells by annexin V-FITC/propidium iodide staining-based capillary cytometric method; assay type: functional, cell-based
BJ = test: Proapoptotic activity in human BJ cells by annexin V-FITC/propidium iodide staining-based capillary cytometric method; assay type: functional, cell-based
NTERA-2-cl-D1 [4] = test: Induction of apoptosis in human NT2/D1 cells assessed as necrotic cells at 25 uM after 4 hrs by annexin V/propidium iodide staining-based capillary cytometric method (reference value: 0.10%); assay type: functional
THP-1 [5] = test: Proapoptotic activity in human THP1 cells assessed as necrotic cells at 25 uM after 5 hrs by annexin V/propidium iodide staining-based capillary cytometric method relative to control; assay type: functional
THP-1 [6] = test: Induction of apoptosis in human THP1 cells assessed as late apoptotic cells at 25 uM after 4 hrs by annexin V/propidium iodide staining-based capillary cytometric method (reference value: 0.34%); assay type: functional
THP-1 [7] = test: Proapoptotic activity in human THP1 cells assessed as early apoptotic cells at 25 uM after 1 hr by annexin V/propidium iodide staining-based capillary cytometric method relative to control; assay type: functional
NTERA-2-cl-D1 [8] = test: Induction of apoptosis in human NT2/D1 cells assessed as necrotic cells at 25 uM after 4 hrs in presence of pan caspase inhibitor Z-VAD-fmk by annexin V/propidium iodide staining-based capillary cytometric method (reference value: 0.10%); assay type: functional
ASPC1 = test: Proapoptotic activity in human AsPC1 cells by annexin V-FITC/propidium iodide staining-based capillary cytometric method; assay type: functional, cell-based
NTERA-2-cl-D1 [9] = test: Proapoptotic activity in human NT2/D1 cells assessed as early apoptotic cells at 25 uM after 7 hrs by annexin V/propidium iodide staining-based capillary cytometric method relative to control; assay type: functional
THP-1 [10] = test: Proapoptotic activity in human THP1 cells assessed as necrotic cells at 25 uM after 3 hrs by annexin V/propidium iodide staining-based capillary cytometric method relative to control; assay type: functional
NTERA-2-cl-D1 [11] = test: Proapoptotic activity in human NT2/D1 cells assessed as late apoptotic cells at 25 uM after 3 hrs by annexin V/propidium iodide staining-based capillary cytometric method relative to control; assay type: functional
THP-1 [12] = test: Proapoptotic activity in human THP1 cells assessed as late apoptotic cells at 25 uM after 3 hrs by annexin V/propidium iodide staining-based capillary cytometric method relative to control; assay type: functional
THP-1 [13] = test: Induction of apoptosis in human THP1 cells assessed as early apoptotic cells at 25 uM after 4 hrs by annexin V/propidium iodide staining-based capillary cytometric method (reference value: 3.22%); assay type: functional
THP-1 [14] = test: Proapoptotic activity in human THP1 cells assessed as early apoptotic cells at 25 uM after 5 hrs by annexin V/propidium iodide staining-based capillary cytometric method relative to control; assay type: functional
NTERA-2-cl-D1 [15] = test: Proapoptotic activity in human NT2/D1 cells assessed as necrotic cells at 25 uM after 5 hrs by annexin V/propidium iodide staining-based capillary cytometric method relative to control; assay type: functional
NTERA-2-cl-D1 [16] = test: Induction of apoptosis in human NT2/D1 cells assessed as activation of caspase 8/9 at 25 uM by 7-AAD staining-based capillary cytometric method; assay type: functional, cell-based
THP-1 [17] = test: Induction of apoptosis in human THP1 cells assessed as early apoptotic cells at 25 uM after 4 hrs in presence of pan caspase inhibitor Z-VAD-fmk by annexin V/propidium iodide staining-based capillary cytometric method (reference value: 3.22%); assay type: functional
THP-1 [18] = test: Induction of apoptosis in human THP1 cells assessed as late necrotic cells at 25 uM after 4 hrs by annexin V/propidium iodide staining-based capillary cytometric method (reference value: 0.04%); assay type: functional
NTERA-2-cl-D1 [19] = test: Induction of apoptosis in human NT2/D1 cells assessed as activation of caspase 3/7 by measuring DNA fragmentation at 25 uM after 3 hrs by 7-AAD staining-based capillary cytometric method; assay type: functional, cell-based
THP-1 [20] = test: Proapoptotic activity in human THP1 cells assessed as early apoptotic cells at 25 uM after 3 hrs by annexin V/propidium iodide staining-based capillary cytometric method relative to control; assay type: functional
THP-1 [21] = test: Proapoptotic activity in human THP1 cells assessed as late apoptotic cells at 25 uM after 7 hrs by annexin V/propidium iodide staining-based capillary cytometric method relative to control; assay type: functional
NTERA-2-cl-D1 [22] = test: Proapoptotic activity in human NT2/D1 cells assessed as late apoptotic cells at 25 uM after 5 hrs by annexin V/propidium iodide staining-based capillary cytometric method relative to control; assay type: functional
NTERA-2-cl-D1 [23] = test: Induction of apoptosis in human NT2/D1 cells assessed as early apoptotic cells at 25 uM after 4 hrs by annexin V/propidium iodide staining-based capillary cytometric method (reference value: 3.40%); assay type: functional
THP-1 [24] = test: Induction of DNA fragmentation in human THP1 cells at 25 uM after 6 to 24 hrs by propidium iodide/RNase staining-based capillary cytometric method; assay type: functional, cell-based
THP-1 [25] = test: Induction of apoptosis in human THP1 cells assessed as […] cells at 25 uM after 4 hrs by annexin V/propidium iodide staining-based capillary cytometric method (reference value: 96.40%); assay type: functional
THP-1 [26] = test: Proapoptotic activity in human THP1 cells assessed as late apoptotic cells at 25 uM after 1 hr by annexin V/propidium iodide staining-based capillary cytometric method relative to control; assay type: functional
NTERA-2-cl-D1 [27] = test: Induction of apoptosis in human NT2/D1 cells assessed as late apoptotic cells at 25 uM after 4 hrs by annexin V/propidium iodide staining-based capillary cytometric method (reference value: 0.70%); assay type: functional

EC50 (NTERA-2-cl-D1 [3]): 11 µM
EC50 (ASPC1): 32 µM
SMILES: CNc1nc(-c2cccc(NC(=O)c3cc4ccccc4[nH]3)c2)c[nH]1.Cl
Activity (THP-1 [1]): 0.2%
Activity (NTERA-2-cl-D1 [2]): 2.87%
EC50 (BJ): 21 µM
Activity (NTERA-2-cl-D1 [4]): 0.3%
Activity (THP-1 [5]): 0.1%
Activity (THP-1 [6]): 89.44%
Activity (THP-1 [7]): 1.45%
Activity (NTERA-2-cl-D1 [8]): 0.17%
Activity (NTERA-2-cl-D1 [9]): 55.66%
Activity (THP-1 [10]): 0.3%
Activity (NTERA-2-cl-D1 [11]): 3.24%
Activity (THP-1 [12]): 16.53%
Activity (THP-1 [13]): 4.96%
Activity (THP-1 [14]): 33.25%
Activity (NTERA-2-cl-D1 [15]): 0.6%
Activity (NTERA-2-cl-D1 [16]): Active
Activity (THP-1 [17]): 64.66%
Activity (THP-1 [18]): 0.26%
Activity (NTERA-2-cl-D1 [19]): Active
Activity (THP-1 [20]): 5.81%
Activity (THP-1 [21]): 45.9%
Activity (NTERA-2-cl-D1 [22]): 6.08%
Activity (NTERA-2-cl-D1 [23]): 23.88%
Activity (THP-1 [24]): Active
Activity (THP-1 [25]): 5.34%
Activity (THP-1 [26]): 2.66%
Activity (NTERA-2-cl-D1 [27]): 5.16%
